Test results from BindingDB's records for doi:10.1021/jm060955d (Abbott Laboratories, 2006).

What was measured:
Assay in all cases: DPP Inhibition Assay
Conditions in all cases: pH 7.5; 22 °C
[1] = molecular target: Dipeptidyl peptidase 8 (Homo sapiens, UniProt Q6V1X1)
Protocol: (§1) For each concentration of inhibitor or DMSO control, the steady state rates were used to fit a rectangular hyperbola, from which Km and Vmax values were determined by nonlinear regression analysis. The ratio of the Km/Vmax vs inhibitor concentration was plotted and the negative X-intercept, as calculated by linear regression, was the competitive Ki.

[2] = molecular target: Dipeptidyl peptidase 4 (Homo sapiens, UniProt P27487)
Chain of Dipeptidyl peptidase 4 (P27487 whole entry): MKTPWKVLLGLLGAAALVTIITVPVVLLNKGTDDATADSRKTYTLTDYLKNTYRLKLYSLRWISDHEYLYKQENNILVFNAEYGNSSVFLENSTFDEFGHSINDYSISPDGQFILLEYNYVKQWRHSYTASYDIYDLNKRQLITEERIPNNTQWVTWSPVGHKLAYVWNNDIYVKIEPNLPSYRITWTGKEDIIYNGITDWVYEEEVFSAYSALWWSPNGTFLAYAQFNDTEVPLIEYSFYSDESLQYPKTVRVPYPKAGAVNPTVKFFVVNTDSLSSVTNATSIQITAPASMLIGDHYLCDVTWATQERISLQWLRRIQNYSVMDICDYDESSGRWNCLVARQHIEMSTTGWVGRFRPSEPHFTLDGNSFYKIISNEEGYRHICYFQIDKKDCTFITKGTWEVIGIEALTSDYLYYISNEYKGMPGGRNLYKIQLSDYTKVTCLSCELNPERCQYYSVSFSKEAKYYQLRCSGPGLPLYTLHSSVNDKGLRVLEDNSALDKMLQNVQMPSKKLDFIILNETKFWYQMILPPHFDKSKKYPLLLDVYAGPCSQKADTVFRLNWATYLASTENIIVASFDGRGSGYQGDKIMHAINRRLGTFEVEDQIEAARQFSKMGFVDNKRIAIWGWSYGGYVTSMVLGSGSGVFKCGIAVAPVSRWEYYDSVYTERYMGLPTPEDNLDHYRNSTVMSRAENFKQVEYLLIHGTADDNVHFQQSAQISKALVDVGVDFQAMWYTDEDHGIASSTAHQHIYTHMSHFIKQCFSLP
Protocol: as §1

[3] = molecular target: Dipeptidyl peptidase 9 (Homo sapiens, UniProt Q86TI2)
Chain of Dipeptidyl peptidase 9 (Q86TI2 whole entry): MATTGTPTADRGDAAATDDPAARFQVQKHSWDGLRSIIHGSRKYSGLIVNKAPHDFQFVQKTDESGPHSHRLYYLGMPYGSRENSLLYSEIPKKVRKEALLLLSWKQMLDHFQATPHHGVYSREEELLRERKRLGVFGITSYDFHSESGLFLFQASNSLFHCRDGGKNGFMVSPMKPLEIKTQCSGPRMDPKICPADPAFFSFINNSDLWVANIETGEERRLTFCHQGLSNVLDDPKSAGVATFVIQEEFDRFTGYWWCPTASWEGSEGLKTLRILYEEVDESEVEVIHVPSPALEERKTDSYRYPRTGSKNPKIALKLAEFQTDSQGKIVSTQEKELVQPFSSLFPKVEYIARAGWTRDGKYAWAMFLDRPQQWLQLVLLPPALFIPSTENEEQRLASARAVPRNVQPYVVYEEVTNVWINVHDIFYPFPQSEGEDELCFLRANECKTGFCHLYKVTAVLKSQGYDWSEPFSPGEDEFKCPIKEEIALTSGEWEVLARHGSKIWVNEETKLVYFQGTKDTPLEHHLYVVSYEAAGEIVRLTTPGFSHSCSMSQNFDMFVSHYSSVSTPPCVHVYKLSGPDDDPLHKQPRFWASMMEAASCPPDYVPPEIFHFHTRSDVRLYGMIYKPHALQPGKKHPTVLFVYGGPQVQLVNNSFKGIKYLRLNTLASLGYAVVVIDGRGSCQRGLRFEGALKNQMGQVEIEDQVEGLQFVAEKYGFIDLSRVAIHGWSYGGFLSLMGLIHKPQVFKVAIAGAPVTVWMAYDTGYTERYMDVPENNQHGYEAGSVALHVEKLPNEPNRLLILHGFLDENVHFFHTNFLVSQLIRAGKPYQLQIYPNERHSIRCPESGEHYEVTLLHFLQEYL
Protocol: as §1

Chain of Dipeptidyl peptidase 8 (Q6V1X1 whole entry): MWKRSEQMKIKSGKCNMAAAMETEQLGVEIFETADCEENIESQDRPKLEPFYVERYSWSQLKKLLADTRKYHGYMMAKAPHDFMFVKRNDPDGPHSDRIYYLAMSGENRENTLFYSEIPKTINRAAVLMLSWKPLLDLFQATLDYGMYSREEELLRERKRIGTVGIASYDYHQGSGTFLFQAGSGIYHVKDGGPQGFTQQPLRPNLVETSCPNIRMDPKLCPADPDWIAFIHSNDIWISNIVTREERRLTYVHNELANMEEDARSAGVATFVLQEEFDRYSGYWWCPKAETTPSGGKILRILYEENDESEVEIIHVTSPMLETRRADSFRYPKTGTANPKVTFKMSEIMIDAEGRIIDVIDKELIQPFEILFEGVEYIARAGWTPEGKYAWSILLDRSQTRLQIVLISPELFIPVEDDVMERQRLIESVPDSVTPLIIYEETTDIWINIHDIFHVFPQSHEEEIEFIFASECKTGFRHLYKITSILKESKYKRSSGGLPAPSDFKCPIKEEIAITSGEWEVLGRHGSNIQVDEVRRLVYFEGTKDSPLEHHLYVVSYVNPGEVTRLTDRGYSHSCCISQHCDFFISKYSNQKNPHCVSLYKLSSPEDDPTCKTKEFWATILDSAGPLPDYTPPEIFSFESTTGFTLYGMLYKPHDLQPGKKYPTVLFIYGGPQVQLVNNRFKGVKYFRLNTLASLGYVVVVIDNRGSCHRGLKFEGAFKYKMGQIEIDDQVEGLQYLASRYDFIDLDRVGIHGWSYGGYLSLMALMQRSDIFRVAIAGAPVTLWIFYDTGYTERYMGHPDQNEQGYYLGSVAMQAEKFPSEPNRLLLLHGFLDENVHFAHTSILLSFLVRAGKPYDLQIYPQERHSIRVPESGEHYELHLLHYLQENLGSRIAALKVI

Ki [1]	Ki [2]	Ki [3]	Compound
> 30000 nM	1.3 nM	4000 nM	N[C@H]1CC(C(=O)N2CCn3c(nnc3C(F)(F)F)C2)=CC[C@@H]1c1cc(F)c(F)cc1F [(1S,6R)-3-{[3-(trifluoromethyl)-5H,6H,7H,8H-[1,2,4]triazolo[3,4-a]pyrazin-7-yl]carbonyl}-6-(2,4,5-trifluorophenyl)cyclohex-3-en-1-aminium; 2,2,2-trifluoroacetate]
–	< 140 nM	–	N[C@H]1CC(c2ccccc2)=CC[C@@H]1c1ccccc1Cl [(1S,6R)-6-(2-chlorophenyl)-3-phenylcyclohex-3-en-1-aminium; 2,2,2-trifluoroacetate]
